Experimental data as given in patent US20150139979A1, “METHODS OF TREATING A DISEASE OR DISORDER ASSOCIATED WITH BRUTON'S TYROSINE KINASE” (Celgene Avilomics Research, Inc., priority 2013, published 2015).
Read-outs that look alike come from different tables or passages of the source.

Legend:
[1] = test system: B-cell non-Hodgkin lymphoma; assay: Single agent clinical study in B-cell non-Hodgkin lymphoma; format: in vivo
Method: As of Sep. […] See U.S. patent application Ser. No. 13/661,678 and International Patent Application No. PCT/US2012/062133, both filed on Oct. 26, 2012, each of which is hereby incorporated by reference in its entirety. […] Studies are ongoing and additional dose levels currently being investigated include: 1000 mg QD, 1250 mg QD, 375 mg BID and 500 mg BID.

Environmental stability = format: physicochemical
Solubility = format: physicochemical

| SMILES | evaluable B-NHL patients with decreased lymph node size ([1]; monotherapy) | patients with B-cell non-Hodgkin lymphoma who experienced stable disease ([1]; monotherapy, as of Sep. 11, 2012) | environmental instabilities (heat, acid, base) (Environmental stability) | solubility (Solubility; ethanol, organic solvent or mixture, read-out: solubility in ethanol) | solubility (Solubility; water, read-out: solubility in water) | maximum tolerated dose (MTD) ([1]; single agent, up to 750 mg PO QD) |
| --- | --- | --- | --- | --- | --- | --- |
| C=CC(=O)Nc1cccc(Nc2nc(Nc3ccc(OCCOC)cc3)ncc2F)c1.O=S(=O)(O)c1ccccc1 [Compound 1 besylate, N-(3-(5-fluoro-2-(4-(2-methoxyethoxyl)phenylamino)pyrimidin-4-ylamino)phenyl)acrylamide besylate] | Six of eleven | 9 out of 17 | no environmental instabilities | ~10000 µg/mL | ~160 µg/mL | – |
| C=CC(=O)Nc1cccc(Nc2nc(Nc3ccc(OCCOC)cc3)ncc2F)c1 [Compound 1, N-(3-(5-fluoro-2-(4-(2-methoxyethoxyl)phenylamino)pyrimidin-4-ylamino)phenyl)acrylamide] | – | – | – | – | – | has not yet been reached |
